# PubChem BioAssay AID2060511 (Molecular Pharmacology Branch, DTP, NCI, 2025)
# pIC50: −log10 of the molar value.
# System: 422866-222-R5-J1-PDC spheroids with HUVEC/MSC, viability
# Assay: Anticancer human tumor 422866-222-R5-J1-PDC patient-derived pancreatic adenocarcinoma cell line growth inhibition [GQUAD]
# Conditions: for pIC50: curve of first compound; for viability, T/C: stronger effect = lower value
# How it was run: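 Multi-cell-type spheroids of tumor cells with HUVEC and mesenchymal stem cells, treated with drug combinations. Concentrations descend in half-log steps from near clinical Cmax, or from 10 microM where Cmax is unknown; viability read-out.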
# [1] = second compound 0.0316 µM, first compound 0.0316 µM
# [2] = second compound 0.0316 µM, first compound 0.1 µM
# [3] = second compound 0.0316 µM, first compound 0.316 µM
# [4] = second compound 0.0316 µM, first compound 1 µM
# [5] = second compound 0.0316 µM, first compound 3.16 µM
# [6] = second compound 0.0316 µM, first compound 10 µM
# [7] = second compound 0.1 µM, first compound 0.0316 µM
# [8] = second compound 0.1 µM, first compound 0.1 µM
# [9] = second compound 0.1 µM, first compound 0.316 µM
# [10] = second compound 0.1 µM, first compound 1 µM
# [11] = second compound 0.1 µM, first compound 3.16 µM
# [12] = second compound 0.1 µM, first compound 10 µM
# [13] = second compound 0.316 µM, first compound 0.0316 µM
# [14] = second compound 0.316 µM, first compound 0.1 µM
# [15] = second compound 0.316 µM, first compound 0.316 µM
# [16] = second compound 0.316 µM, first compound 1 µM
# [17] = second compound 0.316 µM, first compound 3.16 µM
# [18] = second compound 0.316 µM, first compound 10 µM
# [19] = second compound 1 µM, first compound 0.0316 µM
# [20] = second compound 1 µM, first compound 0.1 µM
# [21] = second compound 1 µM, first compound 0.316 µM
# [22] = second compound 1 µM, first compound 1 µM
# [23] = second compound 1 µM, first compound 3.16 µM
# [24] = second compound 1 µM, first compound 10 µM
# [25] = second compound 3.16 µM, first compound 0.0316 µM
# [26] = second compound 3.16 µM, first compound 0.1 µM
# [27] = second compound 3.16 µM, first compound 0.316 µM
# [28] = second compound 3.16 µM, first compound 1 µM
# [29] = second compound 3.16 µM, first compound 3.16 µM
# [30] = second compound 3.16 µM, first compound 10 µM
# [31] = second compound 10 µM, first compound 0.0316 µM
# [32] = second compound 10 µM, first compound 0.1 µM
# [33] = second compound 10 µM, first compound 0.316 µM
# [34] = second compound 10 µM, first compound 1 µM
# [35] = second compound 10 µM, first compound 3.16 µM
# [36] = second compound 10 µM, first compound 10 µM
# 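Also: spheroids exposed to compounds for seven days before reading.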
# 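For viability, T/C in this document: percent viability relative to DMSO vehicle control taken as 100%.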
structure (smiles),measurement,setting,value
C=CC(=O)N1CCN(c2nc(=O)n(-c3c(C)ccnc3C(C)C)c3nc(-c4c(O)cccc4F)c(F)cc23)C(C)C1 (stereo unspecified) + Cc1[nH]c2ccc(F)cc2c1-c1nc2c3cccnc3c3ncccc3c2[nH]1,pIC50,second compound 0.0316 µM,> 7.50
same,pIC50,second compound 0.1 µM,> 7.50
same,pIC50,second compound 0.316 µM,> 7.50
same,pIC50,second compound 1 µM,> 7.50
same,pIC50,second compound 3.16 µM,> 7.50
same,pIC50,second compound 10 µM,> 7.50
same,"viability, T/C",[1],43.8%
same,"viability, T/C",[2],32.5%
same,"viability, T/C",[3],25.1%
same,"viability, T/C",[4],28.4%
same,"viability, T/C",[5],29.4%
same,"viability, T/C",[6],28.1%
same,"viability, T/C",[7],41.1%
same,"viability, T/C",[8],33.6%
same,"viability, T/C",[9],24.9%
same,"viability, T/C",[10],26.5%
same,"viability, T/C",[11],29.1%
same,"viability, T/C",[12],31.7%
same,"viability, T/C",[13],44.1%
same,"viability, T/C",[14],29.1%
same,"viability, T/C",[15],24.8%
same,"viability, T/C",[16],24.1%
same,"viability, T/C",[17],30.1%
same,"viability, T/C",[18],29.8%
same,"viability, T/C",[19],38.1%
same,"viability, T/C",[20],30.4%
same,"viability, T/C",[21],26.8%
same,"viability, T/C",[22],25.3%
same,"viability, T/C",[23],28%
same,"viability, T/C",[24],30.9%
same,"viability, T/C",[25],32.6%
same,"viability, T/C",[26],27.4%
same,"viability, T/C",[27],25.8%
same,"viability, T/C",[28],27.5%
same,"viability, T/C",[29],28.8%
same,"viability, T/C",[30],25.7%
same,"viability, T/C",[31],27.2%
same,"viability, T/C",[32],29.6%
same,"viability, T/C",[33],26.3%
same,"viability, T/C",[34],26.3%
same,"viability, T/C",[35],28.1%
same,"viability, T/C",[36],27.9%
CC(C)n1c(=O)n(C)c2cnc3cc(F)c(-c4ccc(OCCCN5CCCCC5)nc4)cc3c21 + Cc1[nH]c2ccc(F)cc2c1-c1nc2c3cccnc3c3ncccc3c2[nH]1,pIC50,second compound 0.0316 µM,< 5.00
same,pIC50,second compound 0.1 µM,< 5.00
same,pIC50,second compound 0.316 µM,< 5.00
same,pIC50,second compound 1 µM,< 5.00
same,pIC50,second compound 3.16 µM,< 5.00
same,pIC50,second compound 10 µM,< 5.00
same,"viability, T/C",[1],86.9%
same,"viability, T/C",[2],99.4%
same,"viability, T/C",[3],94%
same,"viability, T/C",[4],91.1%
same,"viability, T/C",[5],89.2%
same,"viability, T/C",[6],52%
same,"viability, T/C",[7],99.4%
same,"viability, T/C",[8],114%
same,"viability, T/C",[9],112%
same,"viability, T/C",[10],83.2%
same,"viability, T/C",[11],113%
same,"viability, T/C",[12],73.5%
same,"viability, T/C",[13],93.8%
same,"viability, T/C",[14],90.6%
same,"viability, T/C",[15],102%
same,"viability, T/C",[16],92.1%
same,"viability, T/C",[17],92.2%
same,"viability, T/C",[18],68.5%
same,"viability, T/C",[19],95.4%
same,"viability, T/C",[20],89.2%
same,"viability, T/C",[21],91.3%
same,"viability, T/C",[22],91.9%
same,"viability, T/C",[23],117%
same,"viability, T/C",[24],64.9%
same,"viability, T/C",[25],78.3%
same,"viability, T/C",[26],88.2%
same,"viability, T/C",[27],105%
same,"viability, T/C",[28],94.7%
same,"viability, T/C",[29],98%
same,"viability, T/C",[30],63.9%
same,"viability, T/C",[31],73%
same,"viability, T/C",[32],95.1%
same,"viability, T/C",[33],91.7%
same,"viability, T/C",[34],80.9%
same,"viability, T/C",[35],85.2%
same,"viability, T/C",[36],54.5%
CC1COCCN1c1cc(-c2ccnn2C)c2ccnc(-c3ccn[nH]3)c2n1 (stereo unspecified) + Cc1[nH]c2ccc(F)cc2c1-c1nc2c3cccnc3c3ncccc3c2[nH]1,pIC50,second compound 0.0316 µM,< 5.00
same,pIC50,second compound 0.1 µM,< 5.00
same,pIC50,second compound 0.316 µM,< 5.00
same,pIC50,second compound 1 µM,7.50
same,pIC50,second compound 3.16 µM,7.50
same,pIC50,second compound 10 µM,7.50
same,"viability, T/C",[1],84.4%
same,"viability, T/C",[2],58.8%
same,"viability, T/C",[3],46.1%
same,"viability, T/C",[4],42%
same,"viability, T/C",[5],52.8%
same,"viability, T/C",[6],87.2%
same,"viability, T/C",[7],83.3%
same,"viability, T/C",[8],64.9%
same,"viability, T/C",[9],41.6%
same,"viability, T/C",[10],33.7%
same,"viability, T/C",[11],50%
same,"viability, T/C",[12],93.7%
same,"viability, T/C",[13],101%
same,"viability, T/C",[14],58.1%
same,"viability, T/C",[15],45.3%
same,"viability, T/C",[16],36.8%
same,"viability, T/C",[17],66%
same,"viability, T/C",[18],75%
same,"viability, T/C",[19],80.9%
same,"viability, T/C",[20],51.9%
same,"viability, T/C",[21],41.1%
same,"viability, T/C",[22],37.5%
same,"viability, T/C",[23],75.3%
same,"viability, T/C",[24],86.6%
same,"viability, T/C",[25],60.6%
same,"viability, T/C",[26],55.9%
same,"viability, T/C",[27],41.5%
same,"viability, T/C",[28],42.6%
same,"viability, T/C",[29],73.2%
same,"viability, T/C",[30],91.5%
same,"viability, T/C",[31],62.8%
same,"viability, T/C",[32],57.8%
same,"viability, T/C",[33],43.1%
same,"viability, T/C",[34],47.1%
same,"viability, T/C",[35],82.8%
same,"viability, T/C",[36],84.2%
